Results reported in ChEMBL document CHEMBL4806962, “Methods and Compositions for Treating Cancer” (2020).
Calls of active or inactive are those of the source. The calls are words filed in the database; no cut-off is given here.

Assays:
PBMC [1] = assay: Effects of compound on IL-2 production in anti-CD3/CD28-stimulated human PBMCs assessed as increase in IL-2 level after 2 days by ELISA; format: functional, tissue-based; details: dose 1-10 µM, time 2.0 day
PBMC [2] = assay: Effects of compound on IL-17A production in anti-CD3/CD28-stimulated human PBMCs assessed as fold decrease in IL-17A level at 30 uM after 2 days by ELISA; format: functional, tissue-based; details: time 2.0 day
PBMC [3] = assay: Effect of compound on human PBMCs assessed as reduction in TGIT expression in CD8-positive T cells after 1 day by flow cytometric analysis; format: functional, cell-based; details: dose 1.25-5 µM
PBMC [4] = assay: Effect of compound on human PBMCs assessed as reduction in CTLA4 expression in naive Treg cells after 1 day by flow cytometric analysis; format: functional, cell-based; details: dose 0.19-6 µM
[5] = Effects of compound on anti-CD3/CD28-stimulated human PBMCs assessed as CD8-positive cells population at 10 uM after 2 days by flow cytometric analysis; format: functional, PBMC; details: time 2 day
[6] = target: Probable G-protein coupled receptor 174 (Homo sapiens, UniProt Q9BXC1); assay: Inverse agonist activity at GPR174 in anti-CD3/CD28-stimulated human PBMCs assessed as increase in FoxP3-positive Helios-negative T cells at 100 uM after 3 days by flow cytometric analysis; format: functional, tissue-based; details: PBMC, filed as inverse agonist, time 3.0 day
Sequence of Probable G-protein coupled receptor 174 (Q9BXC1 whole entry): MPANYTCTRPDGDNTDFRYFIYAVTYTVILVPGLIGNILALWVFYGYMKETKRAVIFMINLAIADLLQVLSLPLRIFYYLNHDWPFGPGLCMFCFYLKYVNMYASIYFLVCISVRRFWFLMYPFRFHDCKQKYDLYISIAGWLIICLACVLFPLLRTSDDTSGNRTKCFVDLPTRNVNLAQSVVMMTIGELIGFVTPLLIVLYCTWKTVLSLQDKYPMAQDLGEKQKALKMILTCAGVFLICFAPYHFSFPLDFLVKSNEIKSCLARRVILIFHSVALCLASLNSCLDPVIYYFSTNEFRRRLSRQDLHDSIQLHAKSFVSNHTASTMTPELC

Splenocyte = assay: Effects of compound on IL-2 production in anti-CD3/CD28-stimulated GPR174 knockdown mouse splenocytes assessed as increase in IL-2 levels at 10 uM after 48 hrs; format: functional, cell-based
PBMC [7] = assay: Effects of compound on IL-6 production in anti-CD3/CD28-stimulated human PBMCs assessed as fold increase in IL-6 level at 30 uM after 2 days by ELISA; format: functional, tissue-based; details: time 2.0 day
PBMC [8] = assay: Effects of compound on IL-10 production in anti-CD3/CD28-stimulated human PBMCs assessed as fold increase in IL-10 level at 30 uM after 2 days by ELISA; format: functional, tissue-based; details: time 2.0 day
[9] = Induction of TNF production in anti-CD3/CD28-stimulated human PBMCs assessed as fold increase in TNF level at 1 to 2 uM after 24 hrs in presence of A2aR inhibitor ZM-241385 by ELISA; format: functional, PBMC; details: dose 1-2 µM

CC1CCN(c2cc(N3CCN(S(=O)(=O)c4ccccc4)CC3)c([N+](=O)[O-])cc2F)CC1
Activity (PBMC [1]): Dose-Dependent Effect
Activity (PBMC [2]): Active
Activity (PBMC [3]): Dose-Dependent Effect
Activity (PBMC [4]): Dose-Dependent Effect
Activity [5]: 27.5%
Activity [6]: Active
Activity (Splenocyte): inactive
Activity (PBMC [7]): Active
Activity (PBMC [8]): Active
fold change (FC) [9]: 8
